In patent publication US10836768B2, “N-acyl-(3-substituted)-(8-substituted)-5,6-dihydro-[1,2,4]triazolo[4,3-a]pyrazines as selective NK-3 receptor antagonists” (OGEDA SA, priority 2013, dated 2020):

Assays:
[1] = Determination of plasma protein binding (equilibrium dialysis); type: in vitro ADME; conditions: bound drug fraction to plasma protein; 4 hours at 37° C.
From the text: Determination of Plasma Protein Binding
The pharmacokinetic and pharmacodynamic properties of chemicals/drugs are largely a function of the reversible binding of chemicals to plasma or serum proteins. […] Consequently, the extent of the plasma protein binding (PPB) of a compound influences its action as well as its distribution and elimination.
The determination of plasma protein binding (PPB) of a compound is enabled by equilibrium dialysis, an accepted and standard method for reliable estimation of the non-bound drug fraction in plasma. RED (Rapid Equilibrium Dialysis) device insert is made of two side-by-side chambers separated by an O-ring-sealed vertical cylinder of dialysis membrane (MWCO ˜8,000). […] After 4 hours incubation at 37° C. under shaking, an aliquot is removed from each chamber and analyzed by a LC-MS/MS procedure enables the determination of both free and bound drug.
The “free fraction” may be calculated as 100%−% rPPB (i.e. the complementary percentage of that disclosed in Table 4, corresponding to the drug concentration that is unbound and therefore available to engage biological target and elicit pharmacological activity).

[2] = test system: ovariectomized ewes; assay: In vivo assay in OVX ewes, thermoregulation; parameters: species or system ewe; conditions: 1 mg/kg i.v.
From the text: In Vivo Assay in OVX Ewes-Activity in Thermoregulation Experimental Methods: Evaluation of Thermoregulation in OVX Ewe […] After 4 months recovery, animals were acclimatised to housing in single pens for a period of 7 days with ad libitum access to water and […] lucerne hay. One day prior to experimentation, the animals received a jugular vein cannula ([…], Tuta Laboratories, Lane Cove, Australia). The cannulo were kept patent with heparinised saline. […] Animals were fed at 12 h00. Rectal temperatures were monitored with a probe at hourly intervals throughout the experiment, starting at 7 h40 and concluding at 15 h40.

[3] = test system: postmenopausal women; assay: Phase 2a clinical trial, menopausal hot flashes; type: in vivo, human; conditions: 90 mg BID
Experimental: Clinical Evaluation of Compound No 5 for the Treatment of Menopausal Hot Flashes The study objective is to evaluate the effect of compound no 5 on the severity and frequency of hot flashes in postmenopausal women. The Phase 2a clinical trial was conducted in 80 patients, divided over 2 treatment groups of 40 patients each. […] The Phase 2a trial was double blind and randomized. This Phase 2a trial was conducted on healthy menopausal women (40-65 y) experiencing at least 49 moderate or severe hot flashes or night sweats over a period of 7 consecutive days in the screening period (maximum of 4 weeks). […] The weekly number of hot flashes was calculated in two ways: cumulatively for all severity grades, and cumulatively but leaving out the number of mild hot flashes. Hot Flash Frequencies were calculated for weeks 4 and 12. […] This score is an accepted method to assess the overall severity of the hot flash burden and is calculated weekly. […] The Hot Flash Score (based on severity and frequency) is calculated as follows: day-score=(number of mild hot flashes/day×1)+(number of moderate hot flashes/day×2)+(number of severe hot flashes/day×3) • The weekly hot flash score is calculated: […] […]

[4] = test system: women diagnosed with PCOS; assay: Phase 2a clinical trial, PolyCystic Ovary Syndrome (PCOS); type: in vivo, human; conditions: 180 mg QD
Experimental: Clinical Evaluation of Compound No 5 for the Treatment of PolyCystic Ovary Syndrome (PCOS)
The study objectives are to evaluate the effect of compound no 5 on the serum levels of Total Testosterone (TT), Luteinizing Hormone (LH), Follicle Stimulating Hormone (FSH) and LH:FSH ratio after 12 weeks of treatment.
The Phase 2a clinical trial was conducted in 48 patients, divided over 2 treatment groups of 24 patients each. One group received placebo while the other group received 180 mg of compound no 5 once daily (QD) for a period of 12 weeks. The Phase 2a trial was double blind and randomized. […] The study was conducted on an ambulatory basis where patients were asked to visit the clinical site on the first day of dosing and at weeks 3, 6, 9 and 12 during the treatment period with a follow-up visit 2-3 weeks after conclusion of dosing.
Blood draws for LH, FSH and TT were taken every visit between 2 and 8 hours after drug intake (baseline and week 3-6-12). At week 9 the blood samples were taken in the morning before drug intake (i.e. at trough PK concentrations for compound no 5). These blood draws were the basis for assessing the primary (TT) and secondary (LH, FSH, LH:FSH ratio) endpoints. The primary endpoint of Total Testosterone was measured according to GLP using an LC-MS/MS method.
PCOS is typically characterized by excessive ovarian androgen production, failure of ovulation, and slightly enlarged ovaries with numerous peripheral small follicles that appear as cysts. The disorder is commonly accompanied by infertility. Typically, the clinical features of PCOS are associated with hypersecretion of LH and androgens (TT) but with normal serum concentrations of FSH hormone. Laboratory examinations reveal elevated TT levels in about 50% of the patients, accompanied by an elevated LH:FSH ratio (>2) due to the imbalanced secretion of both hormones (a ratio of 1 is considered normal).

[5] = test system: plasma estradiol levels; assay: Estradiol circulating level in female rats; type: in vivo, rat; conditions: adult female rats, 10 mg/kg b.i.d. oral, two consecutive estrous cycles (FIG. 3)
Experimental: Effect of compounds of the invention on Estradiol circulating level in female rats The aim of this study was to evaluate the effect of compounds of the invention on plasma estradiol levels following oral administration at 10 mg/kg (b.i.d.) for a period of 10 days in female rats.
Briefly the experimental methods used for this study were as follows: Two groups of adult, female rats (Sprague-Dawley, −320 g) were treated in-phase with their individual estrous cycles. Thus, treatment was started in the proestrus phase (coincident with peak estradiol levels, as shown on Day 1 in FIG. 3) and rats were dosed twice daily (˜9 h30 and 17 h30) by oral administration either with a compound of the invention at 10 mg/kg or with the vehicle for the control group. Compounds of the invention were prepared in a dose formulation of pyrogen-free water with 0.5% methylcellulose. Estradiol levels were determined for all groups by ELISA performed on plasma samples derived from blood collections taken at 30 minutes before the daily, 9 h30 test article administration on all days presented in FIG. 3.

[6] = test system: circulating levels of luteinizing hormone (LH); assay: Castrated male rat model, circulating LH (oral dosing); type: in vivo; conditions: castrated male SD rats, single oral dose less than or equal to 30 mg/kg, p<0.05
Experimental: In vivo assay to assess compound activity in rat (oral dosing)
Castrated male rat model to assess the effect of compound of invention on circulating levels of luteinizing hormone (LH)
The effect of compounds of the invention to inhibit luteinizing hormone (LH) secretion is determined by the following biological studies.
In humans and rodents, castration is well-precedented to permit heightened, persistent GnRH signaling and consequent elevation of circulating LH. Thus, a castrated rat model is used to provide a broad index for measurement of LH inhibition as a marker of test compound inhibition of the GnRH signaling pathway.
Castrated adult male Sprague-Dawley (SD) rats (150-175 g,) were purchased from Janvier (St Berthevin, France). All animals were housed 2 per cage in a temperature-controlled room (22±2° C.) and 50±5% relative humidity with a 12 hour/12 hour light/dark cycles (lights off at […]). The animals were allowed 3 weeks of postoperative recovery prior to study. Animals were handled on a daily basis. Standard diet and tap water were provided ad libitum. Animal cage litters were changed once a week. On the study day, animals were acclimated to the procedure room for a period of one hour prior to the initiation of the experiment.
Compounds of the invention were formulated in 0.5% methyl cellulose.
After basal sampling (TO) a single dose of compounds of the invention or vehicle was administrated orally to rats. Blood samples were then collected at several time points post dosing (45, 90, 150, 300 and 420 minutes). Blood samples were obtained via tail vein bleed, drawn into EDTA-containing tubes and centrifuged immediately. Plasma samples were collected and stored in a −80° C. freezer until assayed. Serum LH levels were determined using radioimmunoassay kit from RIAZEN—Rat LH, Zentech (Liege, Belgium). Baseline was defined as the initial basal blood sample.

| Exposure (% rPPB) [1] | Compound | pyrogenic response to feeding [2] | Frequency of hot flashes vs placebo [3] | Score of hot flashes vs placebo [3] | FSH secretion [4] | LH [4] | LH:FSH vs placebo [4] | TT vs placebo [4] | estradiol levels [5] | circulating LH levels [6] |
| --- | --- | --- | --- | --- | --- | --- | --- | --- | --- | --- |
| 22% | Cc1nsc(-c2nnc3n2CCN(C(=O)c2ccc(F)cc2)[C@@H]3C)n1 [Compound 5, (R)-(4-fluorophenyl)(8-methyl-3-(3-methyl-1,2,4-thiadiazol-5-yl)-5,6-dihydro-[1,2,4]triazolo[4,3-a]pyrazin-7(8H)-yl)methanone] | not observed | significantly reduced | significantly reduced | preserved | significant decrease | significantly reduced | significantly reduced | significantly decreased estradiol levels | significantly suppressed circulating LH levels |
| 29% | Cc1nsc(-c2nnc3n2CCN(C(=O)c2ccc(F)c(F)c2F)[C@@H]3C)n1 [Compound 8, (R)-(8-methyl-3-(3-methyl-1,2,4-thiadiazol-5-yl)-5,6-dihydro-[1,2,4]triazolo[4,3-a]pyrazin-7(8H)-yl)(2,3,4-trifluorophenyl)methanone] | – | – | – | – | – | – | – | – | significantly suppressed circulating LH levels |
| 22% | Cc1nsc(-c2nnc3n2CCN(C(=O)c2ccc(F)c(F)c2)[C@@H]3C)n1 [Compound 9, (R)-(3,4-difluorophenyl)(8-methyl-3-(3-methyl-1,2,4-thiadiazol-5-yl)-5,6-dihydro-[1,2,4]triazolo[4,3-a]pyrazin-7(8H)-yl)methanone] | – | – | – | – | – | – | – | – | significantly suppressed circulating LH levels |
| 47% | CCc1nsc(-c2nnc3n2CCN(C(=O)c2ccc(F)cc2)[C@@H]3C)n1 [Compound 2, (R)-(3-(3-ethyl-1,2,4-thiadiazol-5-yl)-8-methyl-5,6-dihydro-[1,2,4]triazolo[4,3-a]pyrazin-7(8H)-yl)(4-fluorophenyl)methanone] | – | – | – | – | – | – | – | – | significantly suppressed circulating LH levels |
